This passage reports Ki results from ChEMBL document CHEMBL1134476, “Pharmacological and behavioral analysis of the effects of some bivalent ligand-based monoamine reuptake inhibitors” (J Med Chem, 2001).

What all share (assay type): subcellular, Brain
For assay [1], the target named is T1, Sodium-dependent dopamine transporter (Rattus norvegicus, UniProt P23977). The experiment in a line: Inhibition of high affinity DA uptake into rat synaptosomes using [3H]DA.
Assay [2] concerns the target T2, Norepinephrine transporter (Rattus norvegicus, UniProt Q9WTR4). Description: Ability to inhibit high affinity uptake of norepinephrine transporter into the nerve endings of rat synaptosomes using [3H]NE as a radioligand.
Assay [3] has as its target Sodium-dependent serotonin transporter (Rattus norvegicus, UniProt P31652). Description: Inhibition of high affinity serotonin uptake into rat synaptosomes using [3H]5-HT.
For assay [4], the target named is T1, Sodium-dependent dopamine transporter. Description: Displacement of [3H]mazindol binding to dopamine transporter (DAT) in rat synaptosomes. For orientation: Displacement assays read how much labelled ligand stays bound in the presence of the test substance.
Assay [5] deals with T2, Norepinephrine transporter. Description: Ability to inhibit high affinity uptake of norepinephrine transporter into the nerve endings of rat synaptosomes using [3H]NE radioligand.
For assay [6], the target named is T1, Sodium-dependent dopamine transporter. Description: Ability to inhibit high affinity uptake of DA into the nerve endings of rat synaptosomes using [3H]DA as a radioligand.

T2 sequence (Q9WTR4 whole entry): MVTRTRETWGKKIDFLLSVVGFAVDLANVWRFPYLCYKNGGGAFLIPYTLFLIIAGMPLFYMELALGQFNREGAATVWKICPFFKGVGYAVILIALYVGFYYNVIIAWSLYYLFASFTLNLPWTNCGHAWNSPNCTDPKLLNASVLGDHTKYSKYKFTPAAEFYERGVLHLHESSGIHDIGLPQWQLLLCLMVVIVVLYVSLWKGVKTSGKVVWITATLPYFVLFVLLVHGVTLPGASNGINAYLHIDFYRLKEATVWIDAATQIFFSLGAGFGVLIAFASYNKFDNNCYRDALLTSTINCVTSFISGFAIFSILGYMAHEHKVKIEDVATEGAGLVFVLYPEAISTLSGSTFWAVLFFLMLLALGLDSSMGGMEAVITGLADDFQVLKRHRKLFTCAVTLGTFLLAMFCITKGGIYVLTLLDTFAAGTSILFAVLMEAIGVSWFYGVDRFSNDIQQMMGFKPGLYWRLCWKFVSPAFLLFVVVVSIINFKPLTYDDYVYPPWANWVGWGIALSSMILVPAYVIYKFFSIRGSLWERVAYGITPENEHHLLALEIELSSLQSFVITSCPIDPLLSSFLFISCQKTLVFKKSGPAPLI
T1 sequence (P23977 whole entry): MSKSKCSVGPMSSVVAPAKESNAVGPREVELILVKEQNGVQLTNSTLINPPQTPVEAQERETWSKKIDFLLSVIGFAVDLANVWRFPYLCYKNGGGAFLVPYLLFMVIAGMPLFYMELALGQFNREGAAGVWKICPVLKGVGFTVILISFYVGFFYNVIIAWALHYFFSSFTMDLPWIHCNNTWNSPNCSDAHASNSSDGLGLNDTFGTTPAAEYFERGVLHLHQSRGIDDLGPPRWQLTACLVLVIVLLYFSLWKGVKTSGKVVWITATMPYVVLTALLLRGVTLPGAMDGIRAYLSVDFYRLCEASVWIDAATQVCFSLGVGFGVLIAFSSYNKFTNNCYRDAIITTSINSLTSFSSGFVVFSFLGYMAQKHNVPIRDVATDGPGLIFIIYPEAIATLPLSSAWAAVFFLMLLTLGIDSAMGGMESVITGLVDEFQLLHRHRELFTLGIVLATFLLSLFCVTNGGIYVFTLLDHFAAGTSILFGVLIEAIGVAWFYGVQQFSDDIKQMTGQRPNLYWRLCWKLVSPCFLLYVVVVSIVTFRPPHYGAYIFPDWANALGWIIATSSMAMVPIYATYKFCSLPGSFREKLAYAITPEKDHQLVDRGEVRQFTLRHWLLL
Chain of Sodium-dependent serotonin transporter (P31652 whole entry): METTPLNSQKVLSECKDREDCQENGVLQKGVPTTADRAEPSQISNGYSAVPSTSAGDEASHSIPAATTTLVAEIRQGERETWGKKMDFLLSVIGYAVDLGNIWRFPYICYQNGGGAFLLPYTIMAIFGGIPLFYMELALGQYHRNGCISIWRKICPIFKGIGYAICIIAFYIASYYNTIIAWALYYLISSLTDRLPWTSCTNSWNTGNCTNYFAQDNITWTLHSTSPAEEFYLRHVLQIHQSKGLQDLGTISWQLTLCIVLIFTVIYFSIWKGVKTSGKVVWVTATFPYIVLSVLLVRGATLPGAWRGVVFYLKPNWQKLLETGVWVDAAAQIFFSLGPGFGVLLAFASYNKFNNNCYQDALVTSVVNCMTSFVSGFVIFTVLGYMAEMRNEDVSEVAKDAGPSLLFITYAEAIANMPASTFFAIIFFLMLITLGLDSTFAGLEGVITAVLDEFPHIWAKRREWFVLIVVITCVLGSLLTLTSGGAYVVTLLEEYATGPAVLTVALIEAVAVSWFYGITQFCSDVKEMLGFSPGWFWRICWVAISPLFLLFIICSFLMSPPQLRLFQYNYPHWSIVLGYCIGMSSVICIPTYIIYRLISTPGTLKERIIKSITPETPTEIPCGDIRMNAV

As a reminder, the Ki is a dissociation constant, usually derived from enzyme kinetics or from competition with a known ligand. Turning to `CN1CC[C@H](c2ccc(Cl)cc2)[C@@H](C(=O)NCCCCCNC(=O)c2ccc(Cl)cc2)C1`, the Ki stood at 0.256 µM in assay [1], 0.551 µM in assay [2], 0.159 µM in assay [3] and 0.194 µM in assay [4].
The like results for `CN1CC[C@H](c2ccc(Cl)cc2)[C@@H](C(=O)NCCCCCNC(=O)c2ccccc2)C1` were, in that order, 0.465 µM, 1.2 µM, 0.494 µM and 0.409 µM.
Consider `COC(=O)[C@H]1CN(C)CC[C@@H]1c1ccc(Cl)cc1`, for which the Ki in assay [5] was 0.09 µM; in assay [1] it was 0.228 µM; in assay [3], 5.88 µM; in assay [4], 0.248 µM.
Regarding `CN1CC[C@H](c2ccc(Cl)cc2)[C@@H](C(=O)NCCCCNC(=O)[C@H]2CN(C)CC[C@@H]2c2ccc(Cl)cc2)C1`, the Ki in assay [1] came out at 0.033 µM; in assay [2], 0.104 µM; in assay [3], 0.534 µM; in assay [4], 0.081 µM.
As to `COC(=O)[C@@H]1CN(C)CC[C@H]1c1ccc(Cl)cc1`, the Ki in assay [5] worked out at 0.242 µM; in assay [1], 2.89 µM; in assay [3], 3.6 µM; in assay [4] it was 1.77 µM.
On to `CN1CC[C@@H](c2ccc(Cl)cc2)[C@H](C(=O)NCCCNC(=O)[C@@H]2CN(C)CC[C@H]2c2ccc(Cl)cc2)C1`, for which the Ki is 5.09 µM in assay [1], 0.373 µM in assay [2], 0.342 µM in assay [3] and > 6.5 µM in assay [4].
With `CN1CC[C@H](c2ccc(Cl)cc2)[C@@H](C(=O)OCCCCCCCCOC(=O)[C@H]2CN(C)CC[C@@H]2c2ccc(Cl)cc2)C1`, the Ki in assay [1] came to 0.142 µM; in assay [2], 0.658 µM; in assay [3], 0.175 µM; in assay [4], 0.92 µM.
Regarding `CN1CC[C@H](c2ccc(Cl)cc2)[C@@H](C(=O)NCCCNC(=O)[C@H]2CN(C)CC[C@@H]2c2ccc(Cl)cc2)C1`, the Ki came to 0.014 µM in assay [1], 0.146 µM in assay [2], 0.566 µM in assay [3] and 0.0084 µM in assay [4].
As for `CN1CC[C@@H](c2ccc(Cl)cc2)[C@H](C(=O)NCCCCCNC(=O)[C@@H]2CN(C)CC[C@H]2c2ccc(Cl)cc2)C1`, the Ki in assay [2] was 0.393 µM; in assay [4] it was 1.44 µM.
With `CN1CC[C@H](c2ccc(Cl)cc2)[C@@H](C(=O)NCCCCCCCNC(=O)[C@H]2CN(C)CC[C@@H]2c2ccc(Cl)cc2)C1`, the Ki in assay [1] is 0.19 µM; in assay [2], 0.394 µM; in assay [3], 0.04 µM; in assay [4] it was 0.348 µM.
With `CNC(=O)[C@@H]1CN(C)CC[C@H]1c1ccc(Cl)cc1`, the Ki in assay [5] was 3.11 µM; in assay [1], > 70 µM; in assay [3] it was > 10 µM; in assay [4], > 39 µM.
In the case of `CNC(=O)[C@H]1CN(C)CC[C@@H]1c1ccc(Cl)cc1`, the Ki was > 9 µM in assay [1], 4.38 µM in assay [2], > 53 µM in assay [3] and > 12 µM in assay [4].
The like results for `CN1CC[C@H](c2ccc(Cl)cc2)[C@@H](C(=O)NCCCCCNC(=O)/C=C/c2ccc(Cl)cc2)C1` were, in that order, 0.253 µM, 1.08 µM, 0.133 µM and 0.246 µM.
`CN1CC[C@@H](c2ccc(Cl)cc2)[C@H](C(=O)NCCCCCCCCNC(=O)[C@@H]2CN(C)CC[C@H]2c2ccc(Cl)cc2)C1`: the Ki was determined as 1.04 µM in assay [2], 0.0021 µM in assay [3] and 3.18 µM in assay [6].
On to `CN1CC[C@H](c2ccc(Cl)cc2)[C@@H](C(=O)NCCCCCNC(=O)[C@H]2CN(C)CC[C@@H]2c2ccc(Cl)cc2)C1`, for which the inhibition constant (Ki) in assay [1] is 0.039 µM; in assay [2] it was 0.158 µM; in assay [3] it was 0.007 µM; in assay [4], 0.103 µM.
The like results for `CN1CC[C@H](c2ccc(Cl)cc2)[C@@H](C(=O)OCCCOC(=O)[C@H]2CN(C)CC[C@@H]2c2ccc(Cl)cc2)C1` were, in that order, 0.108 µM, 0.34 µM, 0.73 µM and 0.068 µM.
On to `CN1CC[C@H](c2ccc(Cl)cc2)[C@@H](C(=O)OCCCCCOC(=O)[C@H]2CN(C)CC[C@@H]2c2ccc(Cl)cc2)C1`, for which the Ki in assay [1] amounted to 0.056 µM; in assay [2], 0.182 µM; in assay [3] it was 0.025 µM; in assay [4] it was 0.064 µM.
The like results for `CN1CC[C@H](c2ccc(Cl)cc2)[C@@H](C(=O)NCCCCCCCCNC(=O)[C@H]2CN(C)CC[C@@H]2c2ccc(Cl)cc2)C1` were, in that order, 0.341 µM, 1.98 µM, 0.056 µM and 0.294 µM.
The matching figures for `CN1CC[C@H](c2ccc(Cl)cc2)[C@@H](C(=O)NCCCCCCNC(=O)[C@H]2CN(C)CC[C@@H]2c2ccc(Cl)cc2)C1`: 0.075 µM, 0.579 µM, 0.06 µM and 0.402 µM.
